Data: PubChem BioAssay AID256 (DTP/NCI, 2004)
Several values for one entry are separate records, joined by “and”; a condition that tells them apart may be missing. Equal entries are not always repeated. Toxic doses and inconclusive results are not listed.

Tested on: CD2F1 mice, L1210 leukemia ip, survival T/C
Test: NCI In Vivo Anticancer Drug Screen. Data for tumor model L1210 Leukemia (intraperitoneal) in CD2F1 (CDF1) mice
Settings: higher = longer survival
In short: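 Vehicle-treated tumor-bearing mice served as controls (C) for compound-treated mice (T). Reported figure is T divided by C.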

[1] = endpoint: mean survival time, dose: 100.0 mg/kg/injection, schedule: Q01DX009 (ip), vehicle: saline
[2] = endpoint: mean survival time, dose: 100.0 mg/kg/injection, schedule: Q04DX002 (ip), vehicle: saline with Tween-80
[3] = endpoint: mean survival time, dose: 200.0 mg/kg/injection, schedule: Q04DX002 (ip), vehicle: saline with Tween-80
[4] = endpoint: mean survival time, dose: 400.0 mg/kg/injection, schedule: Q04DX002 (ip), vehicle: saline with Tween-80
[5] = endpoint: median survival time, dose: 25.0 mg/kg/injection, schedule: Q01DX009 (ip), vehicle: saline with Tween-80
[6] = endpoint: median survival time, dose: 100.0 mg/kg/injection, schedule: Q01DX009 (ip), vehicle: saline with Tween-80
[7] = endpoint: mean survival time, dose: 100.0 mg/kg/injection, schedule: Q01DX009 (ip), vehicle: saline with Tween-80
[8] = endpoint: mean survival time, dose: 100.0 mg/kg/injection, schedule: Q04DX003 (ip), vehicle: saline with Tween-80
[9] = endpoint: mean survival time, dose: 200.0 mg/kg/injection, schedule: Q01DX009 (ip), vehicle: saline with Tween-80
[10] = endpoint: mean survival time, dose: 200.0 mg/kg/injection, schedule: Q04DX003 (ip), vehicle: saline with Tween-80
[11] = endpoint: mean survival time, dose: 400.0 mg/kg/injection, schedule: Q01DX009 (ip), vehicle: saline with Tween-80
[12] = endpoint: mean survival time, dose: 400.0 mg/kg/injection, schedule: Q04DX003 (ip), vehicle: saline with Tween-80
[13] = endpoint: mean survival time, dose: 200.0 mg/kg/injection, schedule: Q01DX001 (ip), vehicle: saline with Tween-80

Compound: CC(=O)On1nnc2ccccc2c1=O
- T/C (endpoint: mean survival time, dose: 12.5 mg/kg/injection, schedule: Q01DX001 (ip), vehicle: distilled water + Tween-80): 101 % of control
- T/C (endpoint: mean survival time, dose: 25.0 mg/kg/injection, schedule: Q01DX001 (ip), vehicle: distilled water + Tween-80): 100 % of control
- T/C (endpoint: mean survival time, dose: 50.0 mg/kg/injection, schedule: Q01DX001 (ip), vehicle: distilled water + Tween-80): 95 % of control
- T/C (endpoint: mean survival time, dose: 100.0 mg/kg/injection, schedule: Q01DX001 (ip), vehicle: distilled water + Tween-80): 90 % of control

Compound: CNC1(Cc2ccc(F)cc2)CCC1
- T/C (endpoint: mean survival time, dose: 25.0 mg/kg/injection, schedule: Q01DX009 (ip), vehicle: saline): 100 % of control
- T/C (endpoint: mean survival time, dose: 50.0 mg/kg/injection, schedule: Q01DX009 (ip), vehicle: saline): 102 % of control
- T/C [1]: 100 % of control

Compound: CC(=O)N(C)NC(=O)c1ccccn1
- T/C (endpoint: mean survival time, dose: 50.0 mg/kg/injection, schedule: Q01DX001 (ip), vehicle: water): 106 % of control
- T/C (endpoint: mean survival time, dose: 100.0 mg/kg/injection, schedule: Q01DX001 (ip), vehicle: water): 103 % of control
- T/C (endpoint: mean survival time, dose: 200.0 mg/kg/injection, schedule: Q01DX001 (ip), vehicle: water): 102 % of control
- T/C (endpoint: mean survival time, dose: 400.0 mg/kg/injection, schedule: Q01DX001 (ip), vehicle: water): 103 % of control

Compound: O=C(NC(=O)c1ccccc1)NC1=C(Cl)C(=O)c2ccccc2C1=O
- T/C (endpoint: mean survival time, dose: 100.0 mg/kg/injection, schedule: Q01DX001 (ip), vehicle: other): 106 % of control
- T/C (endpoint: mean survival time, dose: 200.0 mg/kg/injection, schedule: Q01DX001 (ip), vehicle: other): 104 % of control
- T/C (endpoint: mean survival time, dose: 400.0 mg/kg/injection, schedule: Q01DX001 (ip), vehicle: other): 109 % of control

Compound: CC(=O)Oc1c(Br)cc2cc(Br)ccc2c1Br
- T/C [2]: 90 % of control
- T/C [3]: 98 % of control
- T/C [4]: 98 % of control

Compound: Cc1cc(=O)n2c3c(c4c(cc13)c(CN(C)C)cc(=O)n4C)OC2
- T/C (endpoint: median survival time, dose: 6.0 mg/kg/injection, schedule: Q01DX009 (ip), vehicle: saline with Tween-80): 110 % of control
- T/C (endpoint: median survival time, dose: 12.0 mg/kg/injection, schedule: Q01DX009 (ip), vehicle: saline with Tween-80): 101 % of control
- T/C (endpoint: median survival time, dose: 12.5 mg/kg/injection, schedule: Q01DX009 (ip), vehicle: saline with Tween-80): 100 % of control
- T/C [5]: 119 % of control and 110 % of control
- T/C [6]: 97 % of control

Compound: O=C(OCCCCI)c1ccccc1
- T/C (endpoint: mean survival time, dose: 75.0 mg/kg/injection, schedule: Q01DX001 (ip), vehicle: saline): 97 % of control
- T/C (endpoint: mean survival time, dose: 150.0 mg/kg/injection, schedule: Q01DX001 (ip), vehicle: saline): 102 % of control
- T/C (endpoint: mean survival time, dose: 300.0 mg/kg/injection, schedule: Q01DX001 (ip), vehicle: saline): 97 % of control

Compound: Cc1ccc(OS(=O)(=O)c2ccc(C)cc2)cc1
- T/C [7]: 97 % of control
- T/C [8]: 96 % of control
- T/C [9]: 100 % of control
- T/C [10]: 93 % of control
- T/C [11]: 96 % of control
- T/C [12]: 98 % of control

Compound: Nc1ccc([N+](=O)[O-])c(S(=O)(=O)O)c1
- T/C [8]: 95 % of control
- T/C [10]: 95 % of control
- T/C [12]: 89 % of control

Compound: CCOc1ccc(-c2nc3ccc(-c4nc5ccc(N6CCN(C)CC6)cc5[nH]4)cc3[nH]2)cc1
- T/C (endpoint: median survival time, dose: 0.75 mg/kg/injection, schedule: Q01DX009 (ip), vehicle: saline): 112 % of control
- T/C (endpoint: median survival time, dose: 0.75 mg/kg/injection, schedule: Q01DX009 (ip), vehicle: suspension in saline): 94 % of control
- T/C (endpoint: median survival time, dose: 1.5 mg/kg/injection, schedule: Q01DX009 (ip), vehicle: saline): 112 % of control
- T/C (endpoint: median survival time, dose: 1.5 mg/kg/injection, schedule: Q01DX009 (ip), vehicle: suspension in saline): 95 % of control
- T/C (endpoint: median survival time, dose: 3.0 mg/kg/injection, schedule: Q01DX009 (ip), vehicle: suspension in saline): 104 % of control
- T/C (endpoint: median survival time, dose: 6.0 mg/kg/injection, schedule: Q01DX009 (ip), vehicle: suspension in saline): 105 % of control
- T/C (endpoint: median survival time, dose: 12.0 mg/kg/injection, schedule: Q01DX009 (ip), vehicle: suspension in saline): 104 % of control
- T/C (endpoint: median survival time, dose: 24.0 mg/kg/injection, schedule: Q01DX009 (ip), vehicle: saline): 118 % of control
- T/C (endpoint: median survival time, dose: 24.0 mg/kg/injection, schedule: Q01DX009 (ip), vehicle: suspension in saline): 117 % of control

Compound: CC(Cl)S(=O)(=O)c1ccccc1 (stereo not drawn)
- T/C [2]: 104 % of control
- T/C [3]: 96 % of control
- T/C [4]: 96 % of control

Compound: O=C(CCNC(=O)OCc1ccccc1)NC(CSCc1ccccc1)C(=O)O (stereo not drawn)
- T/C (endpoint: mean survival time, dose: 25.0 mg/kg/injection, schedule: Q01DX005 (ip), vehicle: water): 101 % of control
- T/C (endpoint: mean survival time, dose: 50.0 mg/kg/injection, schedule: Q01DX005 (ip), vehicle: water): 106 % of control
- T/C (endpoint: mean survival time, dose: 100.0 mg/kg/injection, schedule: Q01DX005 (ip), vehicle: water): 101 % of control
- T/C (endpoint: mean survival time, dose: 200.0 mg/kg/injection, schedule: Q01DX005 (ip), vehicle: water): 108 % of control

Compound: CC1=NNC(C)(C)C1
- T/C (endpoint: mean survival time, dose: 25.0 mg/kg/injection, schedule: Q01DX009 (ip), vehicle: Klucel (hydroxypropylcellulose) (HPC)): 96 % of control
- T/C (endpoint: mean survival time, dose: 50.0 mg/kg/injection, schedule: Q01DX009 (ip), vehicle: Klucel (hydroxypropylcellulose) (HPC)): 97 % of control
- T/C (endpoint: mean survival time, dose: 100.0 mg/kg/injection, schedule: Q01DX009 (ip), vehicle: Klucel (hydroxypropylcellulose) (HPC)): 92 % of control
- T/C [1]: 102 % of control
- T/C (endpoint: mean survival time, dose: 200.0 mg/kg/injection, schedule: Q01DX009 (ip), vehicle: Klucel (hydroxypropylcellulose) (HPC)): 97 % of control
- T/C (endpoint: mean survival time, dose: 200.0 mg/kg/injection, schedule: Q01DX009 (ip), vehicle: saline): 105 % of control
- T/C (endpoint: mean survival time, dose: 400.0 mg/kg/injection, schedule: Q01DX009 (ip), vehicle: Klucel (hydroxypropylcellulose) (HPC)): 97 % of control
- T/C (endpoint: mean survival time, dose: 400.0 mg/kg/injection, schedule: Q01DX009 (ip), vehicle: saline): 103 % of control

Compound: Nc1nc(N)c2cc(S(=O)(=O)c3ccccc3)ccc2n1
- T/C [5]: 98 % of control
- T/C (endpoint: median survival time, dose: 50.0 mg/kg/injection, schedule: Q01DX009 (ip), vehicle: saline with Tween-80): 100 % of control
- T/C [6]: 102 % of control
- T/C (endpoint: median survival time, dose: 200.0 mg/kg/injection, schedule: Q01DX009 (ip), vehicle: saline with Tween-80): 121 % of control

Compound: O=C(Nc1ccc2c3c(cccc13)CC2)c1cccc([N+](=O)[O-])c1
- T/C [7]: 94 % of control
- T/C [9]: 95 % of control
- T/C [11]: 97 % of control

Compound: CCOC(=O)NC(NC(=O)OCC)C(Br)(Br)Br
- T/C (endpoint: mean survival time, dose: 200.0 mg/kg/injection, schedule: Q01DX001 (ip), vehicle: Klucel (hydroxypropylcellulose) (HPC)): 103 % of control
- T/C (endpoint: mean survival time, dose: 400.0 mg/kg/injection, schedule: Q01DX001 (ip), vehicle: Klucel (hydroxypropylcellulose) (HPC)): 95 % of control

Compound: [Cl][Pt+2][Cl].[NH-]CC1CCCC[N-]1 (stereo not drawn)
- T/C (endpoint: mean survival time, dose: 6.25 mg/kg/injection, schedule: Q04DX003 (ip), vehicle: distilled water + Tween-80): 121 % of control
- T/C (endpoint: mean survival time, dose: 12.5 mg/kg/injection, schedule: Q04DX003 (ip), vehicle: distilled water + Tween-80): 115 % of control
- T/C (endpoint: mean survival time, dose: 25.0 mg/kg/injection, schedule: Q04DX003 (ip), vehicle: distilled water + Tween-80): 150 % of control
- T/C (endpoint: mean survival time, dose: 50.0 mg/kg/injection, schedule: Q04DX003 (ip), vehicle: distilled water + Tween-80): 123 % of control
- T/C (endpoint: mean survival time, dose: 200.0 mg/kg/injection, schedule: Q04DX003 (ip), vehicle: distilled water + Tween-80): 91 % of control
- T/C (endpoint: median survival time, dose: 12.5 mg/kg/injection, schedule: Q04DX002 (ip), vehicle: saline): 168 % of control
- T/C (endpoint: median survival time, dose: 25.0 mg/kg/injection, schedule: Q04DX002 (ip), vehicle: saline): 158 % of control

Compound: COc1cc(/C=C2\NC(=O)NC2=O)ccc1O
- T/C (endpoint: mean survival time, dose: 100.0 mg/kg/injection, schedule: Q01DX001 (ip), vehicle: saline with Tween-80): 94 % of control
- T/C [13]: 88 % of control
- T/C (endpoint: mean survival time, dose: 400.0 mg/kg/injection, schedule: Q01DX001 (ip), vehicle: saline with Tween-80): 90 % of control

Compound: O=C1c2ccccc2C(=O)c2c1cccc2S(=O)(=O)O
- T/C [13]: 97 % of control

Compound: COc1cccc(/C=C(\C(=O)O)c2cccc(OC)c2)c1
- T/C (endpoint: mean survival time, dose: 50.0 mg/kg/injection, schedule: Q04DX002 (ip), vehicle: saline with Tween-80): 89 % of control
- T/C [2]: 86 % of control
- T/C [3]: 104 % of control

Compound: CC(=O)c1ccc2c(c1)-c1ccc(C(C)=O)cc1-2
- T/C [8]: 86 % of control
- T/C [10]: 86 % of control
- T/C [12]: 90 % of control

Compound: O=C1CCC(=O)N1Br
- T/C [7]: 101 % of control
- T/C [8]: 100 % of control
- T/C [9]: 96 % of control
- T/C [10]: 95 % of control
- T/C [11]: 101 % of control
- T/C [12]: 91 % of control

Compound: c1cc2c3c(c1)CCC3CCC2 (stereo not drawn)
- T/C [7]: 96 % of control
- T/C [9]: 101 % of control
- T/C [11]: 90 % of control
